Reference: ChEMBL document CHEMBL1201862, “PubChem BioAssay data set” (2004)
The source made the active and inactive calls.

Columns and labels:
[1] = viability of PTEN-deleted HCT116 cells – cell-based, HCT116 PTEN knockout, dose response (AID 1047); type: functional;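 further: HCT116 colon tumor cells with PTEN knocked out; cells exposed to compound for 60 hours before readout; potency for loss of cell viability measured by luminescence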
[2] = viability of HCT116 lacking mutant beta-catenin – cell-based, human colon tumor, dose response (AID 1045); type: functional;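 further: HCT116 colon tumor cells with beta catenin knocked out; cells exposed to compound for 60 hours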
[3] = viability loss in THP-1 monocytes – THP-1 cells, cytotoxicity control for Vif-APOBEC3G degradation inhibitor project, dose response (AID 1117359); type: functional; conditions: THP-1
[4] = target: Estrogen receptor beta (Homo sapiens, UniProt Q92731);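 further: recombinant ER-beta bound to coactivator SRC1 peptide in presence of estradiol agonist; inhibitors block coactivator peptide binding and lower the FRET signal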
Sequence of Estrogen receptor beta (Q92731 whole entry): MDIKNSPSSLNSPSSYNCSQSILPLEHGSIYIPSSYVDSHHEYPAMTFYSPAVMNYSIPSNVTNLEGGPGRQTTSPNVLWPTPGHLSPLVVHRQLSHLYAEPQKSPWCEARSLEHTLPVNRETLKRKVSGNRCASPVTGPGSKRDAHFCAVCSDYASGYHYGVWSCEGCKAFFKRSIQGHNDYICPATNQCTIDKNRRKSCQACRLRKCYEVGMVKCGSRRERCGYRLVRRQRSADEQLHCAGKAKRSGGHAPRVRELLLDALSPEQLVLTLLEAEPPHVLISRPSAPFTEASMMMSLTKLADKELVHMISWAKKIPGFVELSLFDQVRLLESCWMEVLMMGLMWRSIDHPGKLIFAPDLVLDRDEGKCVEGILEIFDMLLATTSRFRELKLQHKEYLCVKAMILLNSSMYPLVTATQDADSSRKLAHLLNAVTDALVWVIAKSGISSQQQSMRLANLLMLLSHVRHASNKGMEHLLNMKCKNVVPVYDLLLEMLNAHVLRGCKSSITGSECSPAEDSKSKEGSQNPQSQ

[5] = viability loss of HPDE-C7K cells – cell-based, fluorescence, HTS, primary screen (AID 431); type: functional; conditions: Homo sapiens
[6] = HPDE-C7 pancreatic duct cell viability loss – fluorescence, HTS (AID 430); type: functional, cell-based; conditions: Homo sapiens
[7] = target: T1, Short transient receptor potential channel 4 (Mus musculus, UniProt Q9QUQ5); test: calcium entry via TRPC4 opening agents – cell-based, HEK293 TRPC4/mu-opioid, Fluo-4 calcium, dose response (AID 434937); type: functional
T1 sequence (Q9QUQ5 whole entry): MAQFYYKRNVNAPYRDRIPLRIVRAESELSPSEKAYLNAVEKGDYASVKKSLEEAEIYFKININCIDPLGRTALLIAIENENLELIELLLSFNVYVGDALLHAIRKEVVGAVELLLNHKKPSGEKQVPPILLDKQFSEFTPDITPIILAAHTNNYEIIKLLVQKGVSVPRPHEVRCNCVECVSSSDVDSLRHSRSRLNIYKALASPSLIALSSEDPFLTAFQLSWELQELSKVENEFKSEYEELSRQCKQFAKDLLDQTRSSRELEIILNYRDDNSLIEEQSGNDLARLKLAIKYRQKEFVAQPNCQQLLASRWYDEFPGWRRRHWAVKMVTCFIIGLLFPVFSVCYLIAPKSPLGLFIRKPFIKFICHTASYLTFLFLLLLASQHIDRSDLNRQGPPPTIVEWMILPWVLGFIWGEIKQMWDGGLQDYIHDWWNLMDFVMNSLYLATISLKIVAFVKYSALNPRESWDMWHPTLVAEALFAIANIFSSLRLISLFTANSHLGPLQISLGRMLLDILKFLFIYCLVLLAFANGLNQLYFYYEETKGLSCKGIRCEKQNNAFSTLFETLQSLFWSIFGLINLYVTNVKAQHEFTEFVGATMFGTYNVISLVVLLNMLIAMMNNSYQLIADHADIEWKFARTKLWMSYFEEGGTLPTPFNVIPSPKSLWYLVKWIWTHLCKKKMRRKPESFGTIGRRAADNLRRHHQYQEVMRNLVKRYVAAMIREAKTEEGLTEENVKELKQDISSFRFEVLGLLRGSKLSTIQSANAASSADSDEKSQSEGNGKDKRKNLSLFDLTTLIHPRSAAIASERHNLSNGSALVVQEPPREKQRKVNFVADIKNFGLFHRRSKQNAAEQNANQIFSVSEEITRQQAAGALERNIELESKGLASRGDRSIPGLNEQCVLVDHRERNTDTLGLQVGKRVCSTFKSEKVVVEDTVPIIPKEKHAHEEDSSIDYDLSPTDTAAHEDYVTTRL

[8] = target: T2, Low molecular weight phosphotyrosine protein phosphatase (Homo sapiens, UniProt P24666); type: functional; conditions: read-out: IC50_Mean;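 further: Dose-response confirmation assay measuring inhibition of LMPTP enzyme activity by fluorescence intensity read-out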
T2 sequence (P24666 whole entry): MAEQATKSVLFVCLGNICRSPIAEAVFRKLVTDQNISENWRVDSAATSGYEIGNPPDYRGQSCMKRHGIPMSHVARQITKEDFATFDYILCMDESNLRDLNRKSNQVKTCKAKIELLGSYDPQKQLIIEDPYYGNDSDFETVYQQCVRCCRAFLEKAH

[9] = test system: Vero; test: cells; type: functional, cell-based; conditions: Chlorocebus sabaeus
[10] = viability of uninfected HEp-2 cells – cell-based, HTS, cytotoxicity control for RSV inhibitor project, dose response (AID 2410); type: functional; conditions: human respiratory syncytial virus
[11] = target: DNA dC->dU-editing enzyme APOBEC-3A (Homo sapiens, UniProt P31941); test: A3A deaminase inhibition for selectivity – biochemical, dose response (AID 504722); type: functional
Sequence of DNA dC->dU-editing enzyme APOBEC-3A (P31941 whole entry): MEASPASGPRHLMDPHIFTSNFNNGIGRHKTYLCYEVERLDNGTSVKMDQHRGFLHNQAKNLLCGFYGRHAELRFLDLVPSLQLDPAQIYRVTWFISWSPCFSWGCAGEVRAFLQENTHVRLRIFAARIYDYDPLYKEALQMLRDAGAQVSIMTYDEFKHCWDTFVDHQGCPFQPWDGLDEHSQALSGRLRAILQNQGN

[12] = target: DNA dC->dU-editing enzyme APOBEC-3G (Homo sapiens, UniProt Q9HC16); test: Dose Response confirmation of small molecule APOBEC3G DNA Deaminase Inhibitors via a fluorescence-based single-stranded DNA deaminase assay. [Related pubchem assays (depositor defined):AID493012, AID493028]; type: functional
Sequence of DNA dC->dU-editing enzyme APOBEC-3G (Q9HC16 whole entry): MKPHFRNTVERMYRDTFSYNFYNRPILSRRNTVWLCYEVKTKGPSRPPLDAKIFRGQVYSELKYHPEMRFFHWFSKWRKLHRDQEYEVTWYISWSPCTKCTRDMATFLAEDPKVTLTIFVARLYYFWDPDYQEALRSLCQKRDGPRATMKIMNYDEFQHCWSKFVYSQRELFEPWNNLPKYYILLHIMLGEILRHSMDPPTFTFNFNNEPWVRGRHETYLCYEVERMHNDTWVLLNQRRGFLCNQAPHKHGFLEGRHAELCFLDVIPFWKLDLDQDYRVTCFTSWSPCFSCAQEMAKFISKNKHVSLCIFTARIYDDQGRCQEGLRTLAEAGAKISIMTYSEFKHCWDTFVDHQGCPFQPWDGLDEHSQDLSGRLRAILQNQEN

[13] = target: Ras and Rab interactor 1/Tyrosine-protein kinase ABL1 (Homo sapiens, UniProt P00519+Q13671); type: functional;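 further: biochemical TR-FRET dose-response test measuring inhibition of binding between Rin1 and Abl proteins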
Sequence of Ras and Rab interactor 1/Tyrosine-protein kinase ABL1 (P00519 whole entry): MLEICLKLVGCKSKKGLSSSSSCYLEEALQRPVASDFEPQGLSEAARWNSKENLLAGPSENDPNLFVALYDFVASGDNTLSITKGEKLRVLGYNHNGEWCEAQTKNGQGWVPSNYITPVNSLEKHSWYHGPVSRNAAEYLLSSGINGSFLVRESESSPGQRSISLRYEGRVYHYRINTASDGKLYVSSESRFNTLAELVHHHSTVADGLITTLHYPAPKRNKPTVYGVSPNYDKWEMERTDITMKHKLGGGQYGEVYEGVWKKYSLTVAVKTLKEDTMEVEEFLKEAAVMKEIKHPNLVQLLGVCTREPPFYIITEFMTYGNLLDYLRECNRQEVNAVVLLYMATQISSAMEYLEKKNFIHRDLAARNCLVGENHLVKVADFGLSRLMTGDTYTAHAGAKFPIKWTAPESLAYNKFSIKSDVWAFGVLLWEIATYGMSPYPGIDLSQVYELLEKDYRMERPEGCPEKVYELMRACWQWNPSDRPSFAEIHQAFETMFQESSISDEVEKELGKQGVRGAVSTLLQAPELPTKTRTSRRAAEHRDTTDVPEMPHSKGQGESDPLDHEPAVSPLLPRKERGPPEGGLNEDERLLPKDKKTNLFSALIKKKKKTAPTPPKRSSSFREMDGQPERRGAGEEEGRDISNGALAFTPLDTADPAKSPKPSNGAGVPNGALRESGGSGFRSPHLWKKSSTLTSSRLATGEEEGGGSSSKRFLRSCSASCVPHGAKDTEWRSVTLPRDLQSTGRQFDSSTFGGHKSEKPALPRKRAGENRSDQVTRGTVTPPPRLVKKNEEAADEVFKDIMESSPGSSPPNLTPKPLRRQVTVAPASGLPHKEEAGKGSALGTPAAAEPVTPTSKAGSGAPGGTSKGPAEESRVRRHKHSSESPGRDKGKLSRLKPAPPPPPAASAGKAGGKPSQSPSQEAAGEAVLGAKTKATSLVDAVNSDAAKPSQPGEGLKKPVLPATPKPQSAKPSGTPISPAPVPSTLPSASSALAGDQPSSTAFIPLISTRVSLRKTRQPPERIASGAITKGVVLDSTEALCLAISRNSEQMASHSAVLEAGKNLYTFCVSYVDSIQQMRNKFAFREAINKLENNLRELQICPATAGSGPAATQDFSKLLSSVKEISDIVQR
Sequence of Ras and Rab interactor 1/Tyrosine-protein kinase ABL1 (Q13671 whole entry): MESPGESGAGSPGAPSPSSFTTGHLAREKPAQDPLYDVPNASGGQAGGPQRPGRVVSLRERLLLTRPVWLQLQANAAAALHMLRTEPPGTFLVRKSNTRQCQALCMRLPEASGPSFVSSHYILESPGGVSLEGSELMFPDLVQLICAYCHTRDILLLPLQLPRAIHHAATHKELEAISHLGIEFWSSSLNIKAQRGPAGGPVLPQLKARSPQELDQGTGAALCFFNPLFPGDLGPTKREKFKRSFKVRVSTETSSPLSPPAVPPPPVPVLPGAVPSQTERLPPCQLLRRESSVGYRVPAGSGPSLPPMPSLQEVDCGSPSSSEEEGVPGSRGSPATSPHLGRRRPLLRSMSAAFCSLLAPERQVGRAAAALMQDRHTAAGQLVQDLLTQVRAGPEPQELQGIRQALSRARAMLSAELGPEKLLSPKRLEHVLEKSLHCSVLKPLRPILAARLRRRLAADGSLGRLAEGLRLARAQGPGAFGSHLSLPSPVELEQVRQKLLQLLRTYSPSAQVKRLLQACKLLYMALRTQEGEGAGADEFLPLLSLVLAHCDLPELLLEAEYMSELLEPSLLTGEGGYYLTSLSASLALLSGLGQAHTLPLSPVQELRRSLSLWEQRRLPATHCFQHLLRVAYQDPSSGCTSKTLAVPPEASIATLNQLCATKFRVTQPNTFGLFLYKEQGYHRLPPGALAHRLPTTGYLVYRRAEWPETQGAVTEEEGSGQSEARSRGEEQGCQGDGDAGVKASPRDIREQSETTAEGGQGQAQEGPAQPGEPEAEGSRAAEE

[14] = target: Cytochrome P450 2C19 (Homo sapiens, UniProt P33261); test: Cytochrome panel assay with activity outcomes. Panel member name: p450-cyp2c19 Compounds with AC50 equal or less than 10 uM are considered active; type: functional; conditions: read-out: AC50
Sequence of Cytochrome P450 2C19 (P33261 whole entry): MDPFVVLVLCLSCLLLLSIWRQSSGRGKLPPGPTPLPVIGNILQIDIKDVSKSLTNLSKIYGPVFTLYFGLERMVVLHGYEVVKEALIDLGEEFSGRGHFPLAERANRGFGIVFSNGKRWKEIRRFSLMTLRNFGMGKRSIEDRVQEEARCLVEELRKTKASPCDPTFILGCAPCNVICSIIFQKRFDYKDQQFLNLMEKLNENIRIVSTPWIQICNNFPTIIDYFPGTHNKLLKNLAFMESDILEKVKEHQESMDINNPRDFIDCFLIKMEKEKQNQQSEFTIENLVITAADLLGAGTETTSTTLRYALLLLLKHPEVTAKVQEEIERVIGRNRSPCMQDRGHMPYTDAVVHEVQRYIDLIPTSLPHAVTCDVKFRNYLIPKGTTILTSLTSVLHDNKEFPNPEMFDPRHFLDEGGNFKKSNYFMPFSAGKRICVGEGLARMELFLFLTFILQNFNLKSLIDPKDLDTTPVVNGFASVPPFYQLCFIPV

[15] = target: Cytochrome P450 2D6 (Homo sapiens, UniProt P10635);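 further: CYP2D6 member of a cytochrome P450 panel assay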
Sequence of Cytochrome P450 2D6 (P10635 whole entry): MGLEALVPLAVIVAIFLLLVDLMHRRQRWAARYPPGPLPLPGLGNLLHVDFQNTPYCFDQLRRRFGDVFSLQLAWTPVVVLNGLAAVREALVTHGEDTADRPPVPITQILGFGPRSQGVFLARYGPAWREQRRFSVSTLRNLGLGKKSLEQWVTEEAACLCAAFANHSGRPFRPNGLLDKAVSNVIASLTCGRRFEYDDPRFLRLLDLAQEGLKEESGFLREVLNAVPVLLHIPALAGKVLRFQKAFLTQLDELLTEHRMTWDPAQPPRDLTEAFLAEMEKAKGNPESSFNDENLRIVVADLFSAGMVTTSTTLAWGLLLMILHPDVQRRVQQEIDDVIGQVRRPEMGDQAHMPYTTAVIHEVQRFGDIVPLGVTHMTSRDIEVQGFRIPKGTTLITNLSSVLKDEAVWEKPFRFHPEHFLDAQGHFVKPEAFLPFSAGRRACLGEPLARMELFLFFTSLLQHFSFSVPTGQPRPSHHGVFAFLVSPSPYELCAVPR

[16] = Trypanosoma cruzi growth suppression in host cells – NIH3T3 host cells, beta-gal luminescence, confirmation (AID 2044); type: functional, cell-based;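 further: intracellular parasites grown in NIH/3T3 mouse fibroblasts as host cells; luminescent beta-galactosidase reporter signal from transgenic T. cruzi replicating inside host cells; inhibitors lower the luminescence signal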
[17] = NIH3T3 cell viability loss – ATP luminescence, mouse fibroblasts, counter-screen, dose response (AID 2010); type: functional, cell-based;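 further: cells exposed to compound for about 90 hours before reading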
[18] = test system: Vero; test: cells; type: functional; conditions: Chlorocebus sabaeus
[19] = Luminescence Cell-Based Dose Confirmation HTS to Identify Inhibitors of Platelet Dense Granule Release. [Related pubchem assays: 1663 (Primary HTS), 1678 (Summary of Project)]; type: functional
[20] = target: Luciferin 4-monooxygenase (Photinus pyralis, UniProt P08659); test: inhibition of purified Photinus pyralis luciferase – biochemical, luminescence, dose response (AID 1891)
Sequence of Luciferin 4-monooxygenase (P08659 whole entry): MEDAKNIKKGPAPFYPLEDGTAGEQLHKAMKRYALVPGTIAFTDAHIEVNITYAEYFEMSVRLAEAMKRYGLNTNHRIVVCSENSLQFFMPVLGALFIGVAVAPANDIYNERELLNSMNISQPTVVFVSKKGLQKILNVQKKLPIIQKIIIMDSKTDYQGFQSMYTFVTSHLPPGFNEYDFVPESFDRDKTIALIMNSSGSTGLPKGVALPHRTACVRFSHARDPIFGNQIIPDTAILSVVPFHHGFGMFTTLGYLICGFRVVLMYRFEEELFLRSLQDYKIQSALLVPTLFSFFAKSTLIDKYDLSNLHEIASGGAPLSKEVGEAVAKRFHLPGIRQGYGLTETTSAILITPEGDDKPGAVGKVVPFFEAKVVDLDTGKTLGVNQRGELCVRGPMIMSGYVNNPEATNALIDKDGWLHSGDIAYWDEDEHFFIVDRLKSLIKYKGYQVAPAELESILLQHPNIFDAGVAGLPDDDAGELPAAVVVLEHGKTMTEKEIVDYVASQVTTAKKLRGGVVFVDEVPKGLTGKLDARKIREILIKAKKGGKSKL

[21] = target: Large T antigen (Simian virus 40, UniProt P03070); type: functional, Betapolyomavirus macacae;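 further: Confirmatory-stage PubChem screen for compounds that inhibit SV40 T antigen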
[22] = target: T3, Replicative DNA helicase DnaB (Mycobacterium tuberculosis, UniProt P9WMR3); test: DnaB intein splicing inhibitors, dose response, biochemical, cell-free fluorescence (AID 449749); type: functional
T3 sequence (P9WMR3 whole entry): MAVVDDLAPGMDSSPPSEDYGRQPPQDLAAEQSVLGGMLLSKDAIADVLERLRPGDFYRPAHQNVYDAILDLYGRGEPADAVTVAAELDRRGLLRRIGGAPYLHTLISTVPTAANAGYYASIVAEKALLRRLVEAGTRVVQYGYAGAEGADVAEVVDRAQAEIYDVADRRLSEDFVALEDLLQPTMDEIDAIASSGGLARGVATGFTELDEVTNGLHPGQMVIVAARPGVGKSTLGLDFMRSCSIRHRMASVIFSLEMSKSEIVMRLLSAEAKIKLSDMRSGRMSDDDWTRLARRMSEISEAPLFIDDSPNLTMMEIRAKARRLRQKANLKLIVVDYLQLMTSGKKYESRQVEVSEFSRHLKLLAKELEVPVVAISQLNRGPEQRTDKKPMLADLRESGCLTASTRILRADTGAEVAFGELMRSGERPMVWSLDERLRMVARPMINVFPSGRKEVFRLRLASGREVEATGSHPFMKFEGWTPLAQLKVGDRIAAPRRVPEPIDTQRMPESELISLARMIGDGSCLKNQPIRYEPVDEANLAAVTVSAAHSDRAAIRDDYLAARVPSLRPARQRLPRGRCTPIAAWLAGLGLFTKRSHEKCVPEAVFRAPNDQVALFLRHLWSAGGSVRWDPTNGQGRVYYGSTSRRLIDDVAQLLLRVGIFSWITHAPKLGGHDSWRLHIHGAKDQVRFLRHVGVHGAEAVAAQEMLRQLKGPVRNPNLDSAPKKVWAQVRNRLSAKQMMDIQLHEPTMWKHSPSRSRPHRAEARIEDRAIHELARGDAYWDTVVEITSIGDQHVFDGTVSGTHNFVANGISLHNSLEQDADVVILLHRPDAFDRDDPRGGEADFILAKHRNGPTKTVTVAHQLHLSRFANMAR

[23] = target: T4, Protein RecA (Mycobacterium tuberculosis, UniProt P9WHJ3); test: Fluorescence Cell-Free Homogeneous Dose Retest to Identify Inhibitors of RecA-Intein Splicing Activity. [Related pubchem assays (depositor defined):AID2097, AID2223, AID489010, AID492950]; type: functional
T4 sequence (P9WHJ3 whole entry): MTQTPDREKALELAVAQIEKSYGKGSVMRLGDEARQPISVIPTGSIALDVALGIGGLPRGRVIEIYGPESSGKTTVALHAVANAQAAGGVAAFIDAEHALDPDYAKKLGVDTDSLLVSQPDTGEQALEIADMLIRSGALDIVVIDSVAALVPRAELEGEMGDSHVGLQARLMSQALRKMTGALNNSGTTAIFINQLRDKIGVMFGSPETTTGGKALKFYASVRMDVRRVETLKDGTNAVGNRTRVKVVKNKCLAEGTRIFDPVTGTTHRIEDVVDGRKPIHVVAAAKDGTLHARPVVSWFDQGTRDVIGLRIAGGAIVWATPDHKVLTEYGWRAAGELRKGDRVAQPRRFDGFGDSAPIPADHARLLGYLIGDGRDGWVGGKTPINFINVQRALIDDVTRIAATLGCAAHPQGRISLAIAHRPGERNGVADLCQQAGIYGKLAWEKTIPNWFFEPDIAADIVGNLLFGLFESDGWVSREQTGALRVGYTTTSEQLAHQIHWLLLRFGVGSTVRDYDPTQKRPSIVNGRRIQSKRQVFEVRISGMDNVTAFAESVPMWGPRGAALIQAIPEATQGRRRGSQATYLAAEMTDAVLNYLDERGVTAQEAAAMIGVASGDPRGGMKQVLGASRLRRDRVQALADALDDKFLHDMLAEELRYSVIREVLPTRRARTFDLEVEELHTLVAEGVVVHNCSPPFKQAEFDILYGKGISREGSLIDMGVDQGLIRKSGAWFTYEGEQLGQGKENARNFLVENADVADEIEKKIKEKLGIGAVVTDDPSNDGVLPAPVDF

[24] = P. falciparum Dd2 growth inhibitors, dose response, SYBR Green, cherry-picked samples (AID 1159567); type: functional, cell-based
[25] = toxicity to human hepatoma HepG2 cells – cell-based, cherry-picked samples, cytotoxicity control, dose response (AID 1159577); type: functional

## Cc1cccc(-n2c(O)nc3c(C(N)=O)nc(-c4ccccc4Cl)nc32)c1
[1]
  EC50: 10.5 µM (active)
[2]
  EC50: 11.2 µM (active)

## Cc1cc(C(=O)CCl)c(C)n1-c1c(C)n(C)n(-c2ccccc2)c1=O
[3]
  CC50: > 40 µM (active)

## Cc1nn2c(-c3cccc(NC(=O)CSc4nc5ccccc5o4)c3)nnc2c2ccccc12
[4]
  IC50: > 50 µM (not active)
[5]
  EC50: 7.73 µM (active)
[6]
  EC50: 7.91 µM (active)

## NC1=NC2(CCN(Cc3ccccc3)CC2)n2c(nc3ccccc32)N1
[7]
  EC50: 0.299 µM (active)
[8]
  IC50: 27.1 µM (inactive)

## Cc1sc(NC(=S)NC(=O)c2ccc(C(C)(C)C)cc2)c(C#N)c1C
[9]
  IC50: 13.9 µM (active)
[10]
  CC50: 46.8 µM (active)

## S=c1[nH]nc(Cc2cccs2)n1-c1ccccc1
[11]
  IC50: > 100 µM (inactive)
[12]
  IC50: 7.51 µM (active)

## COC(=O)c1ccc(CSc2nnc(CNC(=O)COc3ccc(Cl)cc3)o2)o1
[13]
  IC50: 21.4 µM (inactive)

## Cc1cccc(NC(S)=NC2CC3CCCC(C2)N3Cc2cccs2)c1 (stereo not given)
[1]
  EC50: 65.3 µM (active)
[14]
  AC50: 28.2 µM (inconclusive)
[15]
  AC50: 3.98 µM (inconclusive)
[2]
  EC50: 92.3 µM (active)

## O=C(c1ccc(Cl)c([N+](=O)[O-])c1)N(Cc1ccc(Cl)cc1)C1CCS(=O)(=O)C1 (stereo not given)
[1]
  EC50: 26.8 µM (active)
[2]
  EC50: 17.9 µM (active)

## O=c1n(Cc2ccc(Cl)cc2)c2sc3c(c2c2ncnn12)CCCC3
[5]
  EC50: 13.1 µM (active)
[6]
  EC50: 13.3 µM (active)

## OCCCCNCc1ccc(OCc2ccc(Cl)cc2Cl)cc1
[1]
  EC50: 10.9 µM (active)
[16]
  EC50: 1.68 µM (active)
[17]
  EC50: 17.3 µM (active)
[2]
  EC50: 9.83 µM (active)

## Cc1c(CCO)c(=O)[nH]n1C(=O)c1c(F)cccc1F
[18]
  CC50: > 25 µM (active)
[9]
  IC50: 15.4 µM (active)

## CCOc1ccc(N(CC(=O)N2CCC(Cc3ccccc3)CC2)S(C)(=O)=O)cc1
[3]
  CC50: > 40 µM (active)

## COc1ccc(C2c3c(nc[nH]c3=O)Oc3nc[nH]c(=O)c32)cc1
[13]
  IC50: 2.87 µM (active)

## CN(C(=O)CCN1C(=O)/C(=C/c2ccccc2)SC1=S)C1CCS(=O)(=O)C1 (stereo not given)
[18]
  CC50: 21.2 µM (active)

## CN(C(=O)c1ccc(NC(=O)Cc2cccc(NC(=O)C3CCN(C(=O)c4ccccc4)CC3)c2)cc1)C1CC1
[13]
  IC50: 15.3 µM (inactive)

## CCOc1cc(/C=N/NC(=O)N/N=C/c2ccc(O)c(OCC)c2)ccc1O
[19]
  EC50: 11.8 µM (active)
[20]
  EC50: 1.2 µM (active)
[21]
  IC50: 4.27 µM (active)

## CC1=C/C(=N/c2c(C)n(C)n(-c3ccccc3)c2=O)C=CC1=O
[22]
  AC50: 29.5 µM (active)
[23]
  EC50: 14 µM (active)
[3]
  CC50: > 40 µM (active)

## CC(C)NC(=O)N1CCCCN2[C@H](CO)[C@@H](c3ccc(C#C[C@@H](C)O)cc3)[C@@H]2C1
[24]
  AC50: 27.8 µM (active)
[25]
  AC50: > 39 µM (inactive)

## Cc1cccc(-c2ccc([C@@H]3[C@@H](CO)N4CCCCN(CCC(F)(F)F)C[C@H]34)cc2)c1
[24]
  AC50: 0.801 µM (active)
[25]
  AC50: 8.79 µM (active)

## O=C(C[C@H]1C[C@@H]2c3cc(NC(=O)c4cccnc4)ccc3O[C@@H]2[C@@H](CO)O1)NCc1ccc(Oc2ccccc2)cc1
[24]
  AC50: 13.7 µM (active)
[25]
  AC50: > 39 µM (inactive)

## COc1ccc(S(=O)(=O)N2CCC3(CC2)CN(C(=O)CN(C)C)[C@@H](CO)c2c3c3ccc(OC)cc3n2C)cc1
[24]
  AC50: 2.53 µM (active)
[25]
  AC50: 18.8 µM (active)
